How the values were obtained:
Test in all cases: fitness (endpoint OD595 vs no drug) (fraction); higher = more growth
[1] = system: B. subtilis 168
Summary of the method: (§1)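 In 384-well plates at 37 °C, cultures began at OD595 0.01 in 30 µl, with 55 µl used for S. pneumoniae. OD595 readings every 30 min for 14 h were corrected by the first reading. Fitness divides the stationary-phase transition optical density by the robust mean of no-drug control wells. The result is capped at 1.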

[2] = system: S. aureus Newman
Summary of the method: as §1

[3] = system: S. pneumoniae D39V
Summary of the method: as §1
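Note: OD595 on entry to stationary phase over no-drug wells; at most 1.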

O=C(O)c1cn(C2CC2)c2cc(N3CCNCC3)c(F)cc2c1=O [Ciprofloxacin] + CO/N=C(\C(=O)N[C@@H]1C(=O)N2C(C(=O)O)=C(COC(C)=O)CS[C@H]12)c1csc(N)n1 [Cefotaxime]
fitness, one replicate
Settings | partner 0.00775 µg/mL | partner 0.0155 µg/mL | partner 0.031 µg/mL | partner 0.039 µg/mL | partner 0.0625 µg/mL | partner 0.125 µg/mL | partner 0.25 µg/mL | partner 0.312 µg/mL
[1], first compound 0.0098 µg/mL | 0.764 | 0.594 | 0.347 | – | 0.475 | 0.333 | 0.263 | –
[1], first compound 0.0195 µg/mL | 0.546 | 0.205 | 0.063 | – | 0.231 | 0.129 | 0.0436 | –
[1], first compound 0.039 µg/mL | 0.0504 | 0.0283 | 0.045 | – | 0.0338 | 0.0283 | 0.0507 | –
[2], first compound 0.0375 µg/mL | – | – | – | 0.633 | – | – | – | 0.217
[2], first compound 0.075 µg/mL | – | – | – | 0.691 | – | – | – | 0.0389
[2], first compound 0.15 µg/mL | – | – | – | 0.0625 | – | – | – | 0.0381

Settings | fitness
[1], first compound 0.0098 µg/mL, partner 0.5 µg/mL | 0.141
[1], first compound 0.0098 µg/mL, partner 1 µg/mL | 0.0495
[1], first compound 0.0098 µg/mL, partner 2 µg/mL | 0.0625
[1], first compound 0.0195 µg/mL, partner 0.5 µg/mL | 0.0302
[1], first compound 0.0195 µg/mL, partner 1 µg/mL | 0.0272
[1], first compound 0.0195 µg/mL, partner 2 µg/mL | 0.0392
[1], first compound 0.039 µg/mL, partner 0.5 µg/mL | 0.0615
[1], first compound 0.039 µg/mL, partner 1 µg/mL | 0.0416
[1], first compound 0.039 µg/mL, partner 2 µg/mL | 0.0569
[2], first compound 0.0375 µg/mL, partner 0.078 µg/mL | 0.578
[2], first compound 0.0375 µg/mL, partner 0.156 µg/mL | 0.489
[2], first compound 0.0375 µg/mL, partner 0.625 µg/mL | 0.0622
[2], first compound 0.0375 µg/mL, partner 1.25 µg/mL | 0.0267
[2], first compound 0.0375 µg/mL, partner 2.5 µg/mL | 0.0312
[2], first compound 0.075 µg/mL, partner 0.078 µg/mL | 0.518
[2], first compound 0.075 µg/mL, partner 0.625 µg/mL | 0.0809
[2], first compound 0.075 µg/mL, partner 1.25 µg/mL | 0.0731
[2], first compound 0.075 µg/mL, partner 2.5 µg/mL | 0.0893
[2], first compound 0.15 µg/mL, partner 0.078 µg/mL | 0.0493
[2], first compound 0.15 µg/mL, partner 0.156 µg/mL | 0.0219
[2], first compound 0.15 µg/mL, partner 0.625 µg/mL | 0.0244
[2], first compound 0.15 µg/mL, partner 1.25 µg/mL | 0.0309
[2], first compound 0.15 µg/mL, partner 2.5 µg/mL | 0.0543
[3], first compound 0.125 µg/mL, partner 0.0018 µg/mL | 0.992
[3], first compound 0.125 µg/mL, partner 0.0035 µg/mL | 0.95
[3], first compound 0.25 µg/mL, partner 0.0018 µg/mL | 0.919
[3], first compound 0.25 µg/mL, partner 0.0035 µg/mL | 0.962
[3], first compound 0.25 µg/mL, partner 0.007 µg/mL | 0.873
[3], first compound 0.5 µg/mL, partner 0.0018 µg/mL | 0.809
[3], first compound 0.5 µg/mL, partner 0.0035 µg/mL | 0.803

O=C(O)c1cn(C2CC2)c2cc(N3CCNCC3)c(F)cc2c1=O [Ciprofloxacin] + N[C@@H]1CONC1=O [Cycloserine D]
fitness
Settings | partner 0.125 µg/mL | partner 0.25 µg/mL | partner 0.375 µg/mL | partner 0.5 µg/mL | partner 0.75 µg/mL | partner 1.5 µg/mL
[1], first compound 0.0098 µg/mL | 0.891 | 0.85 | – | 0.901 | – | –
[1], first compound 0.0195 µg/mL | 0.684 | 0.653 | – | 0.679 | – | –
[1], first compound 0.039 µg/mL | 0.144 | 0.0682 | – | 0.12 | – | –
[2], first compound 0.0375 µg/mL | – | – | 0.7 | – | 0.682 | 0.689
[2], first compound 0.15 µg/mL | – | – | 0.0749 | – | 0.0416 | 0.047

C[C@@H]1O[C@@H]1P(=O)(O)O [Fosfomycin] + CC1=C(C(=O)O)N2C(=O)[C@@H](NC(=O)[C@H](N)c3ccccc3)[C@H]2SC1 [Cephalexin]
Settings | fitness
[1], first compound 1.562 µg/mL, partner 0.125 µg/mL | 0.66
[1], first compound 1.562 µg/mL, partner 0.25 µg/mL | 0.776
[1], first compound 1.562 µg/mL, partner 0.5 µg/mL | 0.774
[1], first compound 3.124 µg/mL, partner 0.125 µg/mL | 0.573
[1], first compound 3.124 µg/mL, partner 0.25 µg/mL | 0.656
[1], first compound 3.124 µg/mL, partner 0.5 µg/mL | 0.611
[1], first compound 6.248 µg/mL, partner 0.125 µg/mL | 0.404
[1], first compound 6.248 µg/mL, partner 0.25 µg/mL | 0.396
[1], first compound 6.248 µg/mL, partner 0.5 µg/mL | 0.373
[2], first compound 0.781 µg/mL, partner 0.25 µg/mL | 0.677
[2], first compound 0.781 µg/mL, partner 0.5 µg/mL | 0.662
[2], first compound 0.781 µg/mL, partner 1 µg/mL | 0.685
[2], first compound 1.562 µg/mL, partner 0.25 µg/mL | 0.604
[2], first compound 1.562 µg/mL, partner 0.5 µg/mL | 0.561
[2], first compound 1.562 µg/mL, partner 1 µg/mL | 0.616
[2], first compound 3.124 µg/mL, partner 0.25 µg/mL | 0.309
[2], first compound 3.124 µg/mL, partner 0.5 µg/mL | 0.286
[2], first compound 3.124 µg/mL, partner 1 µg/mL | 0.284
[3], first compound 1.25 µg/mL, partner 1 µg/mL | 0.768
[3], first compound 1.25 µg/mL, partner 2 µg/mL | 0.212
[3], first compound 1.25 µg/mL, partner 4 µg/mL | 0.0339
[3], first compound 2.5 µg/mL, partner 2 µg/mL | 0.191
[3], first compound 2.5 µg/mL, partner 4 µg/mL | 0.0402
[3], first compound 5 µg/mL, partner 2 µg/mL | 0.0752
[3], first compound 5 µg/mL, partner 4 µg/mL | 0.0499

fitness, one replicate
Settings | first compound 1.25 µg/mL | first compound 1.562 µg/mL | first compound 2.5 µg/mL | first compound 3.124 µg/mL | first compound 5 µg/mL | first compound 6.248 µg/mL
[1], partner 1 µg/mL | – | 0.797 | – | 0.673 | – | 0.542
[3], partner 0.125 µg/mL | 0.937 | – | 0.879 | – | 0.713 | –
[3], partner 0.25 µg/mL | 0.933 | – | 0.847 | – | 0.762 | –
[3], partner 0.5 µg/mL | 0.899 | – | 0.847 | – | 0.751 | –

CC1(C)S[C@@H]2[C@H](NC(=O)Cc3ccccc3)C(=O)N2[C@H]1C(=O)O [Penicillin G] + CN[C@H](CC(C)C)C(=O)N[C@H]1C(=O)N[C@@H](CC(N)=O)C(=O)N[C@H]2C(=O)N[C@H]3C(=O)N[C@H](C(=O)N[C@H](C(=O)O)c4cc(O)cc(O)c4-c4cc3ccc4O)[C@H](O)c3ccc(c(Cl)c3)Oc3cc2cc(c3O[C@@H]2O[C@H](CO)[C@@H](O)[C@H](O)[C@H]2O[C@H]2C[C@](C)(N)[C@H](O)[C@H](C)O2)Oc2ccc(cc2Cl)[C@H]1O [Vancomycin]
fitness, [2]
Settings | first compound 0.0195 µg/mL | first compound 0.039 µg/mL | first compound 0.078 µg/mL
partner 0.1875 µg/mL | 0.895 | 0.885 | 0.907
partner 0.375 µg/mL | 0.918 | – | 0.926
partner 0.75 µg/mL | 0.884 | – | 0.88

O=C(O)c1cn(C2CC2)c2cc(N3CCNCC3)c(F)cc2c1=O [Ciprofloxacin] + CO/N=C(\C(=O)N[C@@H]1C(=O)N2C(C(=O)[O-])=C(C[N+]3(C)CCCC3)CS[C@H]12)c1csc(N)n1 [Cefepime]
Settings | fitness
[2], first compound 0.0375 µg/mL, partner 0.125 µg/mL | 0.764
[2], first compound 0.0375 µg/mL, partner 0.25 µg/mL | 0.684
[2], first compound 0.0375 µg/mL, partner 0.5 µg/mL | 0.642
[2], first compound 0.075 µg/mL, partner 0.125 µg/mL | 0.686
[2], first compound 0.075 µg/mL, partner 0.25 µg/mL | 0.667
[2], first compound 0.075 µg/mL, partner 0.5 µg/mL | 0.604
[3], first compound 0.125 µg/mL, partner 0.007 µg/mL | 0.991
[3], first compound 0.125 µg/mL, partner 0.0078 µg/mL | ≥ 1
[3], first compound 0.125 µg/mL, partner 0.014 µg/mL | ≥ 1
[3], first compound 0.125 µg/mL, partner 0.0155 µg/mL | 0.935
[3], first compound 0.125 µg/mL, partner 0.028 µg/mL | 0.917
[3], first compound 0.25 µg/mL, partner 0.007 µg/mL | 0.942
[3], first compound 0.25 µg/mL, partner 0.014 µg/mL | 0.972
[3], first compound 0.25 µg/mL, partner 0.028 µg/mL | 0.841
[3], first compound 0.5 µg/mL, partner 0.007 µg/mL | 0.877
[3], first compound 0.5 µg/mL, partner 0.0078 µg/mL | 0.811
[3], first compound 0.5 µg/mL, partner 0.014 µg/mL | 0.903
[3], first compound 0.5 µg/mL, partner 0.0155 µg/mL | 0.734
[3], first compound 0.5 µg/mL, partner 0.028 µg/mL | 0.779
[3], first compound 0.5 µg/mL, partner 0.031 µg/mL | 0.289

[3], first compound 0.25 µg/mL, one replicate
Settings | fitness
partner 0.0078 µg/mL | 0.929
partner 0.0155 µg/mL | 0.959
partner 0.031 µg/mL | 0.741

CC1(C)S[C@@H]2[C@H](NC(=O)Cc3ccccc3)C(=O)N2[C@H]1C(=O)O [Penicillin G] + CCN(CC)CCOC(=O)c1ccc(N)cc1 [Procaine]
fitness, [2]
Settings | first compound 0.0195 µg/mL | first compound 0.039 µg/mL | first compound 0.078 µg/mL
partner 85.5 µg/mL | 0.899 | 0.943 | 0.947
partner 171 µg/mL | 0.876 | 0.925 | 0.977
partner 342 µg/mL | 0.876 | 0.914 | 0.952

— the supplement of paper PMC10627819
